Assay results taken from US20240228501A1, “IMIDAZOLE-CONTAINING CONDENSED RING DERIVATIVE, PREPARATION METHOD THEREFOR, AND APPLICATION THEREOF IN MEDICINE” (CHANGCHUN GENESCIENCE PHARMACEUTICAL CO., LTD., priority 2021, published 2024).

Target: T1, human NK-3 receptor (Homo sapiens, UniProt P29371)
T1 construct: expressed in transfected cells; host or cells: HEK293
T1 sequence (P29371 1-465): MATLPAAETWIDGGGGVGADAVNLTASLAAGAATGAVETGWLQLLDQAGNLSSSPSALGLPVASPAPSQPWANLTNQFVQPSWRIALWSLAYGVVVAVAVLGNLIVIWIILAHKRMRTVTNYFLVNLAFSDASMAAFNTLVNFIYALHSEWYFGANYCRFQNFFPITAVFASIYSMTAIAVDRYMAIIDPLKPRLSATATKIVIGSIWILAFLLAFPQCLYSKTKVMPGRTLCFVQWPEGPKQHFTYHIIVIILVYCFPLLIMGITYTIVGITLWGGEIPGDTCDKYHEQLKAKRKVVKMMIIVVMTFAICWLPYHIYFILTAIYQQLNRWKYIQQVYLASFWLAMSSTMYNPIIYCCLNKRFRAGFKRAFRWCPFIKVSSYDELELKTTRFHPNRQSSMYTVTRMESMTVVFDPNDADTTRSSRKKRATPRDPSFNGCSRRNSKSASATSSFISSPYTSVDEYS
Test: Antagonistic activity on human NK-3 receptor in human NK-3R/HEK293 stably transfected cells (Fluo-4, FLIPR, Neurokinin B as agonist)
Assay type: cell-based
Settings: human NK-3R/HEK293 cells
Procedure: Test Example 1: Determination of Activity of Compounds of the Present Invention on Human NK-3 Receptor
This method is used to determine antagonistic effects of the compounds of the present invention on the activity of human NK-3 receptor proteins expressed in cell lines stably transfected with human NK-3R/HEK293.
2.1 The cell lines stably transfected with human NK-3R/HEK293 were inoculated in a 384-well cell culture plate at a inoculation density of 12,000 cells/well/25 μL, and cultured at 37° C. and 5% CO2 overnight;
2.2 20× Component A was frozen and thawed to room temperature, diluted 2× with Assay Buffer to working concentration, and kept at room temperature for later use;
2.3 The cell culture plate was equilibrated at room temperature for 10 min, the culture medium was removed, and 20 μL of Assay Buffer and 20 μL of 2× Component A […] were added, followed by centrifugation at 200 g at room temperature for 3-5 sec, and incubation at 37° C. for 2 h;
2.4 The compound was diluted 3 times with DMSO in 384 PP_DMSO plate, and then 240 nl/well of the compound was transferred into a working plate with Echo 550, centrifugated at 200 g at room temperature for 1 min; 40 μl of Assay Buffer was added into the working plate, centrifugated at 200 g at room temperature for 1 min, and then fully mixed in an oscillator at 2500 rpm for 20 min, and then centrifugated at 200 g at room temperature for 1 min for later use;
2.5 2.5 nM Neurokinin B TFA (6×) was prepared from Assay Buffer, 50 uL of which was transferred onto 3657 plate for later use;
2.6 The cell culture plate was taken out and left to stand at room temperature for 10 min, then […] the compound diluted in step 2.4 was added into corresponding wells, and the cell culture plate was left to stand at 25° C. for 30 min; and
2.7 10 μL of the compound diluted in step 2.5 was added into the corresponding experimental wells with FLIPR Tetra, and data was collected.
The antagonistic activity of the compounds of the present invention on the human NK-3 receptor was determined through the above experiments, to obtain inhibition curves of the compounds of the present invention and determine concentrations (IC50) of the corresponding compounds that inhibit 50% of the reference agonist.

COc1cc(-c2nc(-c3nc(C)ns3)n3c2[C@@H](C)N(C(=O)c2ccc(F)cc2)CC3)ccn1 [Compound 080, (R)-(1-(2-methoxypyridin-4-yl)-8-methyl-3-(3-methyl-1,2,4-thiadiazol-5-yl)-5,6-dihydroimidazo[1,5-a]pyrazin-7 (8H)-yl)(4-fluorophenyl)methanone]
IC50: 84.5 nM

Cc1nsc(-c2nc(N3CCCC3=O)c3n2CCN(C(=O)c2cc(F)c(F)c(F)c2)[C@@H]3C)n1 [Compound 220, (R)-1-(8-methyl-3-(3-methyl-1,2,4-thiadiazol-5-yl)-7-(3,4,5-trifluorobenzoyl)-5,6,7,8-tetrahydroimidazo[1,5-a]pyrazin-1-yl)pyrrolidin-2-one]
IC50: 28 nM

COCC(=O)Nc1nc(-c2nc(C)ns2)n2c1[C@@H](C)N(C(=O)c1ccc(F)cc1)CC2 [Compound 089, (R)—N-(7-(4-fluorobenzoyl)-8-methyl-3-(3-methyl-1,2,4-thiadiazol-5-yl)-5,6,7,8-tetrahydroimidazo[1,5-a]pyrazin-1-yl)-2-methoxyacetamide]
IC50: 58.6 nM

CC(=O)N[C@@H]1CC(=O)N(c2nc(-c3nc(C)ns3)n3c2[C@@H](C)N(C(=O)c2ccc(F)cc2)CC3)C1 [Compound 132, N—{(R)-1-[(R)-7-(4-fluorobenzoyl)-8-methyl-3-(3-methyl-1,2,4-thiadiazol-5-yl)-5,6,7,8-tetrahydroimidazo[1,5-a]pyrazin-1-yl]-5-oxopyrrolidin-3-yl}acetamide]
IC50: 16.1 nM

CC(=O)Cc1nc(-c2nc(C)ns2)n2c1[C@@H](C)N(C(=O)c1ccc(F)cc1)CC2 [Compound 214, (R)-1-(7-(4-fluorobenzoyl)-8-methyl-3-(3-methyl-1,2,4-thiadiazol-5-yl)-5,6,7,8-tetrahydroimidazo[1,5-a]pyrazin-1-yl)propan-2-one]
IC50: 246 nM

CC(=O)N(C)c1nc(-c2nc(C)ns2)n2c1C(C)N(C(=O)c1ccc(F)cc1)CC2 (centres unmarked) [Compound 010, N-(7-(4-fluorobenzoyl)-8-methyl-3-(3-methyl-1,2,4-thiadiazol-5-yl)-5,6,7,8-tetrahydroimidazo[1,5-a]pyrazin-1-yl)-N-methylacetamide]
IC50: 33.4 nM

Cc1nsc(-c2nc(N3CCCC3=O)c3n2CCN(C(=O)c2ccc(F)cc2C)[C@@H]3C)n1 [Compound 128, (R)-1-(7-(4-fluoro-2-methylbenzoyl)-8-methyl-3-(3-methyl-1,2,4-thiadiazol-5-yl)-5,6,7,8-tetrahydroimidazo[1,5-a]pyrazin-1-yl)pyrrolidin-2-one]
IC50: 84.6 nM

Cc1nsc(-c2nc(N3CCOC3=O)c3n2CCN(C(=O)c2ccc(F)cc2)[C@@H]3C)n1 [Compound 101, (R)-3-(7-(4-fluorobenzoyl)-8-methyl-3-(3-methyl-1,2,4-thiadiazol-5-yl)-5,6,7,8-tetrahydroimidazo[1,5-a]pyrazin-1-yl)oxazolidin-2-one]
IC50: 20.2 nM

Cc1nsc(-c2nc(N3Cc4ccccc4CC3=O)c3n2CCN(C(=O)c2ccc(F)cc2)[C@@H]3C)n1 [Compound 100, (R)-2-(7-(4-fluorobenzoyl)-8-methyl-3-(3-methyl-1,2,4-thiadiazol-5-yl)-5,6,7,8-tetrahydroimidazo[1,5-a]pyrazin-1-yl)-1,4-dihydroisoquinolin-3 (2H)-one]
IC50: 51.9 nM

C[C@@H]1c2c(N3CCCC3=O)nc(-c3nc([C@@H](C)F)ns3)n2CCN1C(=O)c1ccc(F)cc1 [Compound 186, 1-((R)-7-(4-fluorobenzoyl)-3-(3-((R)-1-fluoroethyl)-1,2,4-thiadiazol-5-yl)-8-methyl-5,6,7,8-tetrahydroimidazo[1,5-a]pyrazin-1-yl)pyrrolidin-2-one]
IC50: 88.1 nM

Cc1nsc(-c2nc(N3CCOCC3)c3n2CCN(C(=O)c2ccc(F)cc2)[C@@H]3C)n1 [Compound 033, (R)-(4-fluorophenyl)(8-methyl-3-(3-methyl-1,2,4-thiadiazol-5-yl)-1-morpholino-5,6-dihydroimidazo[1,5-a]pyrazin-7 (8H)-yl)methanone]
IC50: 50.6 nM

CO[C@@H]1CC(=O)N(c2nc(-c3nc(C)ns3)n3c2[C@@H](C)N(C(=O)c2ccc(F)cc2)CC3)C1 [Compound 115, (R)-1-[(R)-7-(4-fluorobenzoyl)-8-methyl-3-(3-methyl-1,2,4-thiadiazol-5-yl)-5,6,7,8-tetrahydroimidazo[1,5-a]pyrazin-1-yl]-4-methoxypyrrolidin-2-one]
IC50: 22.7 nM

Cc1nsc(-c2nc(N3CC=CC3=O)c3n2CCN(C(=O)c2ccc(F)cc2)[C@@H]3C)n1 [Compound 096, (R)-1-(7-(4-fluorobenzoyl)-8-methyl-3-(3-methyl-1,2,4-thiadiazol-5-yl)-5,6,7,8-tetrahydroimidazo[1,5-a]pyrazin-1-yl)-1,5-dihydro-2H-pyrrol-2-one]
IC50: 67.9 nM

Cc1nsc(-c2nc(-c3ccncc3)c3n2CCN(C(=O)c2ccc(F)cc2)C3C)n1 (centres unmarked) [Compound 005, (4-fluorophenyl)(8-methyl-3-(3-methyl-1,2,4-thiadiazol-5-yl)-1-(pyridin-4-yl)-5,6-dihydroimidazo[1,5-a]pyrazin-7 (8H)-yl)methanone]
IC50: 64.6 nM

Cc1nsc(-c2nc(N3C[C@H](N)CC3=O)c3n2CCN(C(=O)c2ccc(F)cc2)[C@@H]3C)n1 [Compound 129]
IC50: 42.5 nM

Cc1nsc(-c2nc(-c3ccco3)c3n2CCN(C(=O)c2ccc(F)cc2)[C@@H]3C)n1 [Compound 218, (R)-(4-fluorophenyl)(1-(furan-2-yl)-8-methyl-3-(3-methyl-1,2,4-thiadiazol-5-yl)-5,6-dihydroimidazo[1,5-a]pyrazin-7 (8H)-yl)methanone]
IC50: 225 nM

Cc1nsc(-c2nc(N3COCC3=O)c3n2CCN(C(=O)c2ccc(F)cc2)C3C)n1 (centres unmarked) [Compound 169, 3-(7-(4-fluorobenzoyl)-8-methyl-3-(3-methyl-1,2,4-thiadiazol-5-yl)-5,6,7,8-tetrahydroimidazo[1,5-a]pyrazin-1-yl)oxazolidin-4-one]
IC50: 65.7 nM

C[C@@H]1c2c(N3CCCC3=O)nc(-c3nc(CF)ns3)n2CCN1C(=O)c1ccc(F)cc1 [Compound 184, (R)-1-(7-(4-fluorobenzoyl)-3-(3-(fluoromethyl)-1,2,4-thiadiazol-5-yl)-8-methyl-5,6,7,8-tetrahydroimidazo[1,5-a]pyrazin-1-yl)pyrrolidin-2-one]
IC50: 46.5 nM

Cc1nsc(-c2nc(N3CCOCCC3=O)c3n2CCN(C(=O)c2ccc(F)cc2)[C@@H]3C)n1 [Compound 114, (R)-1-[7-(4-fluorobenzoyl)-8-methyl-3-(3-methyl-1,2,4-thiadiazol-5-yl)-5,6,7,8-tetrahydroimidazo[1,5-a]pyrazin-1-yl]-1,4-azepan-5-one]
IC50: 28.7 nM

Cc1nsc(-c2nc(-c3c(F)cccc3F)c3n2CCN(C(=O)c2ccc(F)cc2)[C@@H]3C)n1 [Compound 063, (R)-(1-(2,6-difluorophenyl)-8-methyl-3-(3-methyl-1,2,4-thiadiazol-5-yl)-5,6-dihydroimidazo[1,5-a]pyrazin-7 (8H)-yl)(4-fluorophenyl)methanone]
IC50: 47.6 nM

Cc1nsc(-c2nc(-c3ccncn3)c3n2CCN(C(=O)c2ccc(F)cc2)[C@@H]3C)n1 [Compound 027, (R)-(4-fluorophenyl)(8-methyl-3-(3-methyl-1,2,4-thiadiazol-5-yl)-1-(pyrimidin-4-yl)-5,6-dihydroimidazo[1,5-a]pyrazin-7 (8H)-yl)methanone]
IC50: 29.7 nM

Cc1nsc(-c2nc([C@H]3CCCC3=O)c3n2CCN(C(=O)c2ccc(F)cc2)[C@@H]3C)n1 [Compound 211, (R)-2-((R)-7-(4-fluorobenzoyl)-8-methyl-3-(3-methyl-1,2,4-thiadiazol-5-yl)-5,6,7,8-tetrahydroimidazo[1,5-a]pyrazin-1-yl)cyclopentan-1-one]
IC50: 284 nM

Cc1nsc(-c2nc(N3C[C@@H](O)CC3=O)c3n2CCN(C(=O)c2ccc(F)cc2)[C@@H]3C)n1 [Compound 104, (S)-1-((R)-7-(4-fluorobenzoyl)-8-methyl-3-(3-methyl-1,2,4-thiadiazol-5-yl)-5,6,7,8-tetrahydroimidazo[1,5-a]pyrazin-1-yl)-4-hydroxypyrrolidin-2-one]
IC50: 31 nM
